Here are results for 18 compounds from ChEMBL document CHEMBL1148876 (Bioorg Med Chem Lett, 2007).

A short description of data set [1]: Apparent permeability from apical to basolateral side in MDR-MDCK cells overexpressing human p-glycoprotein at 5 uM after 120 mins. Format: ADME, cell-based. As to conditions: MDCK-MDR1.
Data set [2] can be described thus: Apparent permeability from basolateral to apical side in MDR-MDCK cells overexpressing human p-glycoprotein at 5 uM after 120 mins. Format: ADME, cell-based. As to conditions: MDCK-MDR1.
Data set [3] can be described thus: (§1) Ratio of permeability from basolateral to apical over apical to basolateral side of the MDR-MDCK cells at 5 uM after 120 mins. Format: ADME, cell-based. As to conditions: human, MDCK-MDR1.
The next data set deals with HEK293. The experiment in a line: Cytotoxicity against HEK293 cells. It counts as functional, cell-based. As to conditions: Homo sapiens.
The subject of a further data set is MDCK. Described as §1. As to conditions: human, mdck, 2 h, 5 µM. It counts as ADME, cell-based.
A short description of data set [4]: Stability assessed as half life in PBS buffer. Format: physicochemical.
Data set [5] in a line: Stability assessed as half life in mouse plasma. It counts as ADME, cell-free.
A short description of data set [6]: Stability in PBS assessed as percentage of remaining compound after 24 hrs. Format: physicochemical. As to conditions: read-out: Activity.
For the next data set, the species on record is Homo sapiens. The experiment in a line: Stability assessed as half life in human plasma.
The next data set addresses Tubulin (Homo sapiens) (UniProt P68371+Q9H4B7+P0DPH7+P68366+Q13509+Q71U36+P04350+Q3ZCM7+P07437+P68363+Q9BQE3+Q6PEY2+Q13885+Q9BVA1+Q9BUF5). Briefly: Effect on tubulin polymerization by microtubule polymerization assay. Format: protein-complex assay.

Each structure is given as a SMILES string. pIC50: −log10 of the molar value. Activity calls are given as the source filed them. No cut-off for these calls is given here. A value given as a limit tells only on which side of the number the result lay.

As a reminder, the Papp A→B is the apparent permeability from the apical to the basolateral side of a cell layer. The term Papp B→A denotes the apparent permeability from the basolateral to the apical side of a cell layer. The efflux ratio is a quotient of directional permeabilities that is used to spot active efflux. Turning to `CC(=O)O[C@@]12CO[C@@H]1C[C@H](O)[C@@]1(C)C(=O)[C@H](OC(=O)N3CCOCC3)C3=C(C)[C@@H](OC(=O)[C@H](O)[C@@H](NC(=O)c4ccccc4)c4ccccc4)C[C@@](O)([C@@H](OC(=O)c4ccccc4)[C@H]21)C3(C)C`, the Papp A→B at 2 h, 5 µM in data set [1] worked out at 1.7 nm/s. Also, in data set [2], the Papp B→A at 2 h, 5 µM came to 226 nm/s. The efflux ratio at 2 h, 5 µM in [3] was 133.
As usually defined, the pIC50 is −log10 of the IC50, conventionally taken in molar units. Read a low pIC50 as a high IC50. For `CC(=O)O[C@@]12CO[C@@H]1C[C@H](O)[C@@]1(C)C(=O)[C@H](OC(=O)N(C)C(C)(C)C(=O)O)C3=C(C)[C@@H](OC(=O)[C@H](O)[C@@H](NC(=O)c4ccccc4)c4ccccc4)C[C@@](O)([C@@H](OC(=O)c4ccccc4)[C@H]21)C3(C)C`, the pIC50 in the data set with HEK293 was 6.00. In addition, the Papp A→B at 2 h, 5 µM in [1] was 0.5 nm/s. In data set [2], the Papp B→A at 2 h, 5 µM was 0.5 nm/s. The Ratio in the data set on MDCK turned out to be 1.
Usually half-life stands for how long it takes for the measured level to halve. On to `CC(=O)O[C@@]12CO[C@@H]1C[C@H](O)[C@@]1(C)C(=O)[C@H](OC(=O)CCC(=O)O)C3=C(C)[C@@H](OC(=O)[C@H](O)[C@@H](NC(=O)c4ccccc4)c4ccccc4)C[C@@](O)([C@@H](OC(=O)c4ccccc4)[C@H]21)C3(C)C`, for which the half-life in data set [4] is > 60 h; in [5], 19.5 h; in the data set filed under Homo sapiens, 15.3 h. Moreover, in [6], the remaining at 24 h was determined as 75.1%. This compound also showed a negative-log IC50 (pIC50) in the data set with HEK293 of 5.33. Also, the apical-to-basolateral permeability (Papp A→B) at 2 h, 5 µM in data set [1] came out at 0.8 nm/s. In addition, the Papp B→A at 2 h, 5 µM in [2] is 1 nm/s. The Ratio in the data set on MDCK is listed as 1.3.
Turning to `CC(=O)O[C@H]1C(=O)[C@]2(C)[C@@H](OC(=O)NCC(=O)O)C[C@H]3OC[C@@]3(OC(C)=O)[C@H]2[C@H](OC(=O)c2ccccc2)[C@]2(O)C[C@H](OC(=O)[C@H](O)[C@@H](NC(=O)c3ccccc3)c3ccccc3)C(C)=C1C2(C)C`, the pIC50 with HEK293 was < 4.60. Further, in [1], the Papp A→B at 2 h, 5 µM stood at 0.7 nm/s. Besides, the Papp B→A at 2 h, 5 µM in [2] was 0.6 nm/s. The Ratio in the data set on MDCK worked out at 0.9.
The corresponding values for `CC(=O)O[C@@]12CO[C@@H]1C[C@H](O)[C@@]1(C)C(=O)[C@H](OC(=O)N(C)[C@H](C)[C@H](O)c3ccccc3)C3=C(C)[C@@H](OC(=O)[C@H](O)[C@@H](NC(=O)c4ccccc4)c4ccccc4)C[C@@](O)([C@@H](OC(=O)c4ccccc4)[C@H]21)C3(C)C` are 7.62, < 2 nm/s, 253 nm/s and > 127.
In the case of `COC(=O)CNC(=O)O[C@H]1C(=O)[C@@]2(C)[C@H]([C@H](OC(=O)c3ccccc3)[C@]3(O)C[C@H](OC(=O)[C@H](O)[C@@H](NC(=O)c4ccccc4)c4ccccc4)C(C)=C1C3(C)C)[C@]1(OC(C)=O)CO[C@@H]1C[C@@H]2O`, in the data set on HEK293, the pIC50 is 7.22. Besides, the Papp A→B at 2 h, 5 µM in data set [1] was < 6.2 nm/s. Moreover, the Papp B→A at 2 h, 5 µM in data set [2] was 33.6 nm/s. In addition, the Ratio with MDCK is given as > 5.4.
Turning to `CC(=O)O[C@@]12CO[C@@H]1C[C@H](O)[C@@]1(C)C(=O)[C@H](O)C3=C(C)[C@@H](OC(=O)[C@H](O)[C@@H](NC(=O)OC(C)(C)C)c4ccccc4)C[C@@](O)([C@@H](OC(=O)c4ccccc4)[C@H]21)C3(C)C.O.O.O` [DOCETAXEL], the outcome at Tubulin (Homo sapiens) was inactive. Besides, the pIC50 in the data set on HEK293 was 7.57. Moreover, in data set [1], the Papp A→B at 2 h, 5 µM was < 6.2 nm/s. In [2], the Papp B→A at 2 h, 5 µM came out at 155 nm/s. Moreover, the Ratio in the data set with MDCK is recorded as > 25.
Turning to `CC(=O)O[C@@]12CO[C@@H]1C[C@H](O)[C@@]1(C)C(=O)[C@H](OC(=O)NCC(=O)O)C3=C(C)[C@@H](OC(=O)[C@H](O)[C@@H](NC(=O)c4ccccc4)c4ccccc4)C[C@@](O)([C@@H](OC(=O)c4ccccc4)[C@H]21)C3(C)C`, the half-life is > 60 h in data set [4], 31.3 h in data set [5] and 52 h in the data set listed under Homo sapiens. For the same compound, in [6], the remaining at 24 h came to 91.6%. Further, the pIC50 in the data set with HEK293 is 5.08. Besides, the Papp A→B at 2 h, 5 µM in data set [1] was found to be 0.9 nm/s. Also, the basolateral-to-apical permeability (Papp B→A) at 2 h, 5 µM in data set [2] amounted to 0.5 nm/s. Besides, the efflux ratio at 2 h, 5 µM in data set [3] worked out at 0.6.
Compound `CC(=O)O[C@@]12CO[C@@H]1C[C@H](O)[C@@]1(C)C(=O)[C@H](OC(=O)NCC(=O)N(C)C)C3=C(C)[C@@H](OC(=O)[C@H](O)[C@@H](NC(=O)c4ccccc4)c4ccccc4)C[C@@](O)([C@@H](OC(=O)c4ccccc4)[C@H]21)C3(C)C` showed a pIC50 with HEK293 of 6.00. Also, the Papp A→B at 2 h, 5 µM in [1] turned out to be 0.9 nm/s. Besides, the Papp B→A at 2 h, 5 µM in data set [2] was found to be 8 nm/s. For the same compound, the efflux ratio at 2 h, 5 µM in data set [3] was found to be 8.8.
`CC(=O)O[C@@]12CO[C@@H]1C[C@H](O)[C@@]1(C)C(=O)[C@H](OC(=O)NCC(=O)O)C3=C(C)[C@@H](OC(=O)[C@H](O)[C@@H](NC(=O)OC(C)(C)C)c4ccccc4)C[C@@](O)([C@@H](OC(=O)c4ccccc4)[C@H]21)C3(C)C` showed a pIC50 with HEK293 of 5.77. Also, the Papp A→B at 2 h, 5 µM in data set [1] was < 2 nm/s. The Papp B→A at 2 h, 5 µM in data set [2] was < 2 nm/s.
For the compound `CC(=O)O[C@@]12CO[C@@H]1C[C@H](O)[C@@]1(C)C(=O)[C@H](OC(=O)N[C@H](C)C(=O)O)C3=C(C)[C@@H](OC(=O)[C@H](O)[C@@H](NC(=O)c4ccccc4)c4ccccc4)C[C@@](O)([C@@H](OC(=O)c4ccccc4)[C@H]21)C3(C)C`, the pIC50 in the data set on HEK293 was 5.60. In addition, in data set [1], the Papp A→B at 2 h, 5 µM is < 6.3 nm/s. In addition, in data set [2], the Papp B→A at 2 h, 5 µM was < 6.3 nm/s.
The compound `CC(=O)O[C@@]12CO[C@@H]1C[C@H](O)[C@@]1(C)C(=O)[C@H](OC(=O)N[C@@H](C)C(=O)O)C3=C(C)[C@@H](OC(=O)[C@H](O)[C@@H](NC(=O)c4ccccc4)c4ccccc4)C[C@@](O)([C@@H](OC(=O)c4ccccc4)[C@H]21)C3(C)C` had a pIC50 in the data set on HEK293 of 5.41. In addition, the Papp A→B at 2 h, 5 µM in [1] was < 0.6 nm/s. Also, in [2], the Papp B→A at 2 h, 5 µM was < 0.6 nm/s.
`CC(=O)O[C@@]12CO[C@@H]1C[C@H](O)[C@@]1(C)C(=O)[C@H](OC(=O)NCCO)C3=C(C)[C@@H](OC(=O)[C@H](O)[C@@H](NC(=O)c4ccccc4)c4ccccc4)C[C@@](O)([C@@H](OC(=O)c4ccccc4)[C@H]21)C3(C)C` gave a negative logarithm of the IC50 (pIC50) in the data set on HEK293 of 6.15. Besides, in data set [1], the Papp A→B at 2 h, 5 µM was < 2.1 nm/s. The Papp B→A at 2 h, 5 µM in data set [2] is < 2.1 nm/s.
In the data set on HEK293, `CC(=O)O[C@@]12CO[C@@H]1C[C@H](O)[C@@]1(C)C(=O)[C@H](O)C3=C(C)[C@@H](OC(=O)[C@H](O)[C@@H](NC(=O)c4ccccc4)c4ccccc4)C[C@@](O)([C@@H](OC(=O)c4ccccc4)[C@H]21)C3(C)C` gave a pIC50 of 7.12. In data set [1], the Papp A→B at 2 h, 5 µM is 1.3 nm/s. Further, the Papp B→A at 2 h, 5 µM in data set [2] was 51.7 nm/s. Also, the efflux ratio at 2 h, 5 µM in data set [3] came to 39.
On to `CC(=O)O[C@H]1C(=O)[C@@]2(C)[C@H]([C@H](OC(=O)c3ccccc3)[C@]3(O)C[C@H](OC(=O)[C@H](O)[C@@H](NC(=O)c4ccccc4)c4ccccc4)C(C)=C1C3(C)C)[C@]1(OC(C)=O)CO[C@@H]1C[C@@H]2O` [PACLITAXEL], for which the half-life in data set [4] is > 60 h; in [5], 30.1 h. Besides, in data set [6], the remaining at 24 h stood at 85.2%. In addition, at Tubulin (Homo sapiens), the outcome was inactive. The compound also showed a pIC50 with HEK293 of 8.00. Also, in data set [1], the Papp A→B at 2 h, 5 µM was found to be 2 nm/s. In addition, the Papp B→A at 2 h, 5 µM in data set [2] was 285 nm/s.
In turn, `CC(=O)O[C@@]12CO[C@@H]1C[C@H](O)[C@@]1(C)C(=O)[C@H](OC(=O)NCCC(=O)O)C3=C(C)[C@@H](OC(=O)[C@H](O)[C@@H](NC(=O)c4ccccc4)c4ccccc4)C[C@@](O)([C@@H](OC(=O)c4ccccc4)[C@H]21)C3(C)C` gave a pIC50 with HEK293 of 5.13. Moreover, the Papp A→B at 2 h, 5 µM in [1] was < 6.4 nm/s. In addition, the Papp B→A at 2 h, 5 µM in [2] is < 6.4 nm/s.
Compound `CC(=O)O[C@@]12CO[C@@H]1C[C@H](O)[C@@]1(C)C(=O)[C@H](OC(=O)N[C@H]3CCOC3=O)C3=C(C)[C@@H](OC(=O)[C@H](O)[C@@H](NC(=O)c4ccccc4)c4ccccc4)C[C@@](O)([C@@H](OC(=O)c4ccccc4)[C@H]21)C3(C)C` had a pIC50 with HEK293 of 5.72. Also, the Papp A→B at 2 h, 5 µM in data set [1] is < 0.7 nm/s. In addition, in [2], the Papp B→A at 2 h, 5 µM is 2.1 nm/s. Further, the Ratio with MDCK is recorded as > 3.
The like results for `CC(=O)O[C@@]12CO[C@@H]1C[C@H](O)[C@@]1(C)C(=O)[C@H](OC(=O)N(C)CC(=O)O)C3=C(C)[C@@H](OC(=O)[C@H](O)[C@@H](NC(=O)c4ccccc4)c4ccccc4)C[C@@](O)([C@@H](OC(=O)c4ccccc4)[C@H]21)C3(C)C` were, in that order, 5.74, 0.6 nm/s, 0.5 nm/s and 0.9.
